Source: ChEMBL document CHEMBL1201862, “PubChem BioAssay data set” (2004)
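Tested at 5 concentrations; 48 h exposure; 96-well plates; endpoints linearly interpolated, else capped at highest concentration. Here, GI50 denotes the concentration required for 50% inhibition of growth.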 Calls of active or inactive are those of the source. No stated cut-off is given here; in the data, active = GI50 up to about 1.1 µM and inactive = higher.

Key:
Test in all cases: NCI tumour cell line growth inhibition, 48 h
[1] = system: HL-60
[2] = system: SR
[3] = system: SK-OV-3
[4] = system: UO-31
[5] = system: OVCAR-5
[6] = system: LOX IMVI
[7] = system: HT-29
[8] = system: SN12C
[9] = system: DU-145
[10] = system: U-251
[11] = system: SK-MEL-28
[12] = system: OVCAR-4
[13] = system: RPMI-8226
[14] = system: OVCAR-3
[15] = system: MDA-N
[16] = system: K562
[17] = system: A549
[18] = system: A498
[19] = system: MDA-MB-231

SMILES | GI50 [1] | GI50 [2] | GI50 [3] | GI50 [4] | GI50 [5] | GI50 [6] | GI50 [7] | GI50 [8] | GI50 [9] | GI50 [10] | GI50 [11] | GI50 [12] | GI50 [13] | GI50 [14] | GI50 [15] | GI50 [16] | GI50 [17] | GI50 [18] | GI50 [19]
CC[N+](C)(CC)CCNC(=O)C(O)(c1ccccc1)c1ccccc1 | > 100 µM (inactive) | > 100 µM (inactive) | > 100 µM (inactive) | > 100 µM (inactive) | > 100 µM (inactive) | 0.2 µM (active) | > 100 µM (inactive) | > 100 µM (inactive) | > 100 µM (inactive) | > 100 µM (inactive) | > 100 µM (inactive) | > 100 µM (inactive) | > 100 µM (inactive) | > 100 µM (inactive) | > 100 µM (inactive) | > 100 µM (inactive) | > 100 µM (inactive) | – | –
Cc1ccc(-c2c(C#N)c(-c3ccc(C)cc3)n(NS(=O)(=O)c3ccccc3)c(=O)c2C#N)cc1 | – | – | 53.8 µM (inactive) | – | > 100 µM (inactive) | 35 µM (inactive) | 41.7 µM (inactive) | 62.2 µM (inactive) | – | 49.9 µM (inactive) | 49.2 µM (inactive) | 40.6 µM (inactive) | 14.7 µM (inactive) | – | – | 49.2 µM (inactive) | 41.2 µM (inactive) | 51.2 µM (inactive) | > 100 µM (inactive)
CCCCn1c(C)c(C)c2c1NN=C(C#N)S2(=O)=O | – | 75 µM (inactive) | > 100 µM (inactive) | > 100 µM (inactive) | > 100 µM (inactive) | > 100 µM (inactive) | > 100 µM (inactive) | > 100 µM (inactive) | > 100 µM (inactive) | > 100 µM (inactive) | > 100 µM (inactive) | > 100 µM (inactive) | > 100 µM (inactive) | > 100 µM (inactive) | – | > 100 µM (inactive) | > 100 µM (inactive) | – | > 100 µM (inactive)
COc1cc(/C=C(\C#N)c2ccccn2)cc(Br)c1O | 24 µM (inactive) | 22.7 µM (inactive) | 55.1 µM (inactive) | 58.5 µM (inactive) | > 100 µM (inactive) | – | 40.1 µM (inactive) | 45.2 µM (inactive) | > 100 µM (inactive) | 28 µM (inactive) | 26.8 µM (inactive) | > 100 µM (inactive) | 40.9 µM (inactive) | 31.8 µM (inactive) | > 100 µM (inactive) | 4.48 µM (inactive) | 58.6 µM (inactive) | – | –
COc1ccc(C(=O)c2sc(Nc3ccccc3)nc2N)cc1 | 2.2 µM (inactive) | 0.778 µM (active) | 26.9 µM (inactive) | 55.8 µM (inactive) | > 100 µM (inactive) | > 100 µM (inactive) | > 100 µM (inactive) | > 60.5 µM (inactive) | > 68.9 µM (inactive) | 12.7 µM (inactive) | > 100 µM (inactive) | 10.7 µM (inactive) | 3.72 µM (inactive) | > 26.9 µM (inactive) | – | 2.25 µM (inactive) | 24.2 µM (inactive) | > 100 µM (inactive) | > 75.7 µM (inactive)
Cc1ccc(C(=O)/C=C(O)/C(O)=C/C(=O)c2ccc(C)cc2C)c(C)c1 | 0.0641 µM (active) | 2.33 µM (inactive) | 1.94 µM (inactive) | 1.36 µM (inactive) | 2.06 µM (inactive) | 2.16 µM (inactive) | 2.48 µM (inactive) | 2.1 µM (inactive) | 2.36 µM (inactive) | 1.75 µM (inactive) | 1.86 µM (inactive) | 2.7 µM (inactive) | 2.01 µM (inactive) | 1.76 µM (inactive) | – | 2.96 µM (inactive) | 2.48 µM (inactive) | 2.04 µM (inactive) | 2.34 µM (inactive)
CCOC(=O)CCC(NC(=O)C(CCC(=O)OCC)NC(=O)C(Cc1ccc([N+](=O)[O-])cc1)NC(C)=O)C(=O)NNC(=O)OC(C)(C)C (stereo unspecified) | > 100 µM (inactive) | – | – | > 100 µM (inactive) | > 100 µM (inactive) | – | > 100 µM (inactive) | > 100 µM (inactive) | – | > 100 µM (inactive) | > 100 µM (inactive) | – | > 100 µM (inactive) | – | > 100 µM (inactive) | > 100 µM (inactive) | > 100 µM (inactive) | > 100 µM (inactive) | > 100 µM (inactive)
